Experimental data reported in patent US11053205B2, “Phenazine derivatives as antimicrobial agents” (University of Florida Research Foundation, Incorporated, priority 2017, dated 2021).
Converted amounts (≈) assume the structure as drawn. Where two headings read alike, the source gives them in different places. Marks after values point to notes of the source that are not given here.

Experiments:
MRSA-2 = test: MIC, broth microdilution (CLSI); conditions: for MRSA-2 MIC: 16 to 18 hours at 37° C.; for MIC: Staphylococcus aureus, MRSA, read-out: MRSA-2 MIC
MRSA-2 biofilms = test: Calgary Biofilm Device (CBD) assay, MBC/MBEC; conditions: for MRSA-2 MBEC: biofilm eradication
MRSE 35984 = test: MIC, broth microdilution (CLSI); conditions: for MRSE 35984 MIC: 16 to 18 hours at 37° C.; for MIC: Staphylococcus epidermidis, MRSE, read-out: MRSE 35984 MIC, 16 to 18 hours at 37° C.
MRSA BAA-1707 [1] = test: MIC, broth microdilution (CLSI); conditions: 0.10 = lowest concentration tested; for MRSA BAA-1707 MIC: 16 to 18 hours at 37° C.
MRSA BAA-1707 biofilms = test: Calgary Biofilm Device (CBD) assay, MBC/MBEC; conditions: for MRSA BAA-1707 MBC: CBD, planktonic killing
VRE 700221 biofilms = test: Calgary Biofilm Device (CBD) assay, MBC/MBEC; conditions: for VRE 700221 MBC: CBD, planktonic killing
[2] = test system: M. tuberculosis H37Ra (ATCC 25177); test: MIC assay for Mycobacterium tuberculosis; type: cell-based; conditions: read-out: MtB H37Ra MIC
Method: (§1) The culture was then diluted with fresh medium until an OD600 of 0.01 was reached. […] The final DMSO concentration was maintained at 0.5%. […] Three rows were reserved for each compound. […] OD600 absorbance was recorded using SPECTRAMAX M5 (Molecular Devices). Data obtained from three independent experiments were analyzed using Excel.
as §1, with “SpectraMax” for “SPECTRAMAX”

VRE 700221 = test: MIC, broth microdilution (CLSI); conditions: 16 to 18 hours at 37° C.
MRSE 35984 biofilms = test: Calgary Biofilm Device (CBD) assay, MBC/MBEC
MRSA BAA-1707 [3] = test: Macromolecular synthesis inhibition assay; type: cell-based, Staphylococcus aureus
Method: Macromolecular synthesis experiments were carried out in methicillin-resistant Staphylococcus aureus BAA-1707. An overnight culture (100 μL) of S. aureus BAA-1707 was sub-cultured into 10 mL of fresh TSBG media, which was allowed to grow to exponential phase (OD600=0.2−0.3) before transferring 500 μL to each well in a 24 well-plate. The test compounds and vehicle control (DMSO) were added to achieve the desired concentrations relative to their MIC values against S. aureus BAA-1707. Treated cultures were then incubated at 37° C. for 30 minutes before radioactive precursors for DNA ([^3H] thymidine (0.5 μCi)), RNA ([^3H] uridine (0.5 μCi)) and protein ([^3H] leucine (1 μCi)) were added. […] DMSO served as the negative control. DNA and RNA radiolabeled cultures were then incubated in 37° C. for 15 minutes before being stopped by adding 60 μL of cold 5% trichloroacetic acid (TCA). The protein synthesis experiment was stopped after 40 minutes by adding 60 μL cold TCA. These mixtures were then incubated at 2° C. for at least 30 minutes before the contents of the plates were transferred onto glass microfiber filters (24 mm) and washed 5 times with 1 mL of 5% TCA. The filters are allowed to dry overnight before 3.5 mL of the scintillation fluid was added to the scintillation vials containing the filters and the radiation counts were measured using liquid scintillation LS 6500.
For these experiments, MRSA-1707 cultures were treated with [^3H]-thymidine (DNA biosynthesis), [^3H]-uridine (RNA biosynthesis) and [^3H]-leucine (protein biosynthesis) in the presence of HP 1 and antibiotic controls (4-16×MIC).

[4] = LDH release assay for HeLa cytotoxicity; conditions: human, HeLa cells
MRSA-1 = test: MIC, broth microdilution (CLSI)
UV-Vis metal(II) binding = type: physicochemical; conditions: kinetics of UV-Vis experiments
MRSA BAA-1707 [5] = test: Metal(II)-cation co-treatment MIC assay; type: cell-based; conditions: Staphylococcus aureus
S. epi 12228 = test: MIC, broth microdilution (CLSI); conditions: Staphylococcus epidermidis, 12228, read-out: S. epi 12228 MIC
[6] = Mycobacterium tuberculosis, 168 h, seven days at 37° C.
[7] = copper(II) at 200 μM, read-out: MIC w/ Cu2+

Q: Which “MRSA-2 MIC” value (MRSA-2) does the source give for Oc1c(Br)cc(Br)c2nc3cc(Cl)ccc3nc12 [Compound 61A] here?
A: The value was 0.1^b μM.

Q: What about the “Hemolysis at 200 μM” value (human red blood cells) of the same molecule?
A: The value was no more than 1%.

Q: And the “MRSA-2 MBEC” value (MRSA-2 biofilms; CBD)?
A: The value was 25 µM.

Q: And the “MRSA-2 MBC” value (MRSA-2 biofilms; CBD, planktonic killing)?
A: The value was 6.25 µM.

Q: What about the “MRSE 35984 MIC” value (MRSE 35984) of the same molecule?
A: Its value is 0.1^b μM.

Q: For Oc1c(Br)cc(Br)c2nc3cc(Oc4ccccc4)ccc3nc12 [Compound 63A], which “MRSA-2 MIC” value (MRSA-2) is on record?
A: The value was 0.39 µM.

Q: And the “Hemolysis at 200 μM” value (human red blood cells)?
A: Its value is no more than 1%.

Q: What about the “MRSA BAA-1707 MIC” value (MRSA BAA-1707 [1]) of the same molecule?
A: The value was 0.075^a μM.

Q: And the “VRE 700221 MBC” value (VRE 700221 biofilms)?
A: The value was 2.35 µM.

Q: And the “MRSE 35984 MIC” value (MRSE 35984)?
A: Its value is 0.1^b μM.

Q: What about the MIC [2] of the same molecule?
A: Its MIC is 6.25 µM (≈ 2.79 µg/mL).

Q: For CCN(CC)c1ccc2nc3c(O)c(Br)cc(Br)c3nc2c1Br [Compound 64A], which “MRSA-2 MIC” value (MRSA-2) is on record?
A: Its value is 0.3^a μM.

Q: And the “Hemolysis at 200 μM” value (human red blood cells)?
A: Its value is no more than 1%.

Q: What about the “MRSA BAA-1707 MIC” value (MRSA BAA-1707 [1]) of the same molecule?
A: Its value is 0.15^a μM.

Q: And the “VRE 700221 MIC” value (VRE 700221)?
A: The value was 0.3^a μM.

Q: And the “MRSA BAA-1707 MBC” value (MRSA BAA-1707 biofilms)?
A: The value was 9.38 µM.

Q: And the “VRE 700221 MBC” value (VRE 700221 biofilms)?
A: The value was 2.35 µM.

Q: And the “MRSE 35984 MIC” value (MRSE 35984)?
A: Its value is 0.1^b μM.

Q: And the “MRSE 35984 MBEC” value (MRSE 35984 biofilms; CBD, biofilm eradication)?
A: Its value is 6.25 µM.

Q: And the “MRSE 35984 MBC” value (MRSE 35984 biofilms; CBD, planktonic killing)?
A: The value was 9.38 µM.

Q: Which results are given for Oc1c(Br)cc(Br)c2nc3ccccc3nc12 [HP 1, 2,4-dibromophenazin-1-ol]?
A: Hemolysis at 200 μM (human red blood cells; human, 1 h, 200 μM, pH 7.2): ≤1%; RNA biosynthesis inhibition ([3H]-uridine) (MRSA BAA-1707 [3]; at 4×MIC): inhibits both RNA and protein biosynthesis; protein biosynthesis inhibition ([3H]-leucine) (MRSA BAA-1707 [3]; at 4×MIC): inhibits both RNA and protein biosynthesis; DNA biosynthesis inhibition ([3H]-thymidine) (MRSA BAA-1707 [3]; at 8×MIC): does not inhibit DNA biosynthesis; MIC [2, 6]: 25 µM (≈ 8.85 µg/mL); IC50 at 24 h [4]: 100 µM

Q: Which results are given for Oc1c(Br)cc(Br)c2nc3c(O)c(Br)cc(Br)c3nc12 [HP 1-15]?
A: MRSA-2 MIC (MRSA-2): >50 µM; MRSA-1 MIC (MRSA-1; 16 to 18 hours at 37° C.): >50 ^ μM; MRSA BAA-1707 MIC (MRSA BAA-1707 [1]): >50 µM; VRE 700221 MIC (VRE 700221): >50 µM; MRSE 35984 MIC (MRSE 35984): >50 µM

Q: For Cc1ccc2nc3c(Br)cc(Br)c(O)c3nc2c1 [HP 1-20], which melting point is on record?
A: The melting point was 213 to 215 °C.

Q: For Oc1c(Br)cc(Br)c2nc3c(Cl)cccc3nc12 [HP 1-21], which “rate of copper(II) chelation” value (UV-Vis metal(II) binding) is on record?
A: Its value is “faster rate than HP 1”.

Q: And the “Hemolysis at 200 μM” value (human red blood cells; human, 1 h, 200 μM, pH 7.2)?
A: Its value is no more than 1%.

Q: What about the MIC (MRSA BAA-1707 [5]; [7]) of the same molecule?
A: Its MIC is 6.25 µM.

Q: And the MIC [2, 6]?
A: The MIC was 50 µM (≈ 19.4 µg/mL).

Q: Which results are given for COCCOCCOCCOCCOC(=O)Oc1c(Br)cc(Br)c2nc3c(C)cccc3nc12 [HP 1-25]?
A: Hemolysis at 200 μM (human red blood cells; human, 1 h, 200 μM, pH 7.2): ≤1%; HeLa cell cytotoxicity at 100 μM (HeLa cells): no HeLa cell cytotoxicity; MIC [2, 6]: 12.5 µM (≈ 7.53 µg/mL); MIC (S. epi 12228): 0.1 µM (≈ 0.0602 µg/mL)

Q: Which MIC (MRSA-2) does the source give for CO[C@H]1/C=C/O[C@@]2(C)Oc3c(C)c(O)c4c(O)c(c(/C=N/N5CCN(C)CC5)c(O)c4c3C2=O)NC(=O)/C(C)=C\C=C\[C@H](C)[C@H](O)[C@@H](C)[C@@H](O)[C@@H](C)[C@H](OC(C)=O)[C@@H]1C [Rifampin, reference compound] here?
A: The MIC was 0.1 µM (≈ 0.0823 µg/mL).

Q: What about the “MRSA-2 MBEC” value (MRSA-2 biofilms; CBD) of the same molecule?
A: The value was 46.9 µM.

Q: And the MBC (MRSA-2 biofilms; Staphylococcus aureus, MRSA, read-out: MRSA-2 MBC)?
A: The MBC was 2 µM (≈ 1.65 µg/mL).

Q: And the MIC (MRSE 35984)?
A: The MIC was 0.1 µM (≈ 0.0823 µg/mL).

Q: What about the MBC (MRSE 35984 biofilms; Staphylococcus epidermidis, MRSE, read-out: MRSE 35984 MBC) of the same molecule?
A: Its MBC is 3 µM (≈ 2.47 µg/mL).

Q: With c1ccc(CN(CCN(Cc2ccccn2)Cc2ccccn2)Cc2ccccn2)nc1 [TPEN, N,N,N′,N′-tetrakis(2-pyridylmethyl)ethane-1,2-diamine, reference compound] as the molecule, how does the MIC (MRSA-2) read?
A: Its MIC is 50 µM (≈ 21.2 µg/mL).

Q: And the MIC (MRSA-1; Staphylococcus aureus, MRSA, read-out: MRSA-1 MIC)?
A: Its MIC is 75 µM (≈ 31.8 µg/mL).

Q: What about the “Hemolysis at 200 μM” value (human red blood cells; human, 1 h, 200 μM, pH 7.2) of the same molecule?
A: Its value is no more than 1%.

Q: And the “MRSA BAA-1707 MIC” value (MRSA BAA-1707 [1])?
A: Its value is 50 ^ μM.

Q: And the MIC (MRSA BAA-1707 [1]; Staphylococcus aureus, BAA1707|MRSA, read-out: MRSA BAA-1707 MIC, 16 to 18 hours at 37° C.)?
A: Its MIC is 46.9 µM (≈ 19.9 µg/mL).

Q: And the “MRSA BAA-1707 MBC” value (MRSA BAA-1707 biofilms)?
A: The value was 250 µM.

Q: And the MBC (MRSA BAA-1707 biofilms; Staphylococcus aureus, BAA1707|MRSA, read-out: MRSA BAA-1707 MBC, CBD, planktonic killing)?
A: The MBC was 375 µM (≈ 159 µg/mL).

Q: And the MBC (VRE 700221 biofilms; Enterococcus, VRE, read-out: VRE 700221 MBC)?
A: Its MBC is 188 µM (≈ 79.8 µg/mL).

Q: What about the MIC (MRSA BAA-1707 [5]; [7]) of the same molecule?
A: Its MIC is 500 µM.

Q: What about the MIC (MRSA BAA-1707 [5]; iron(II) at 200 μM, read-out: MIC w/ Fe2+) of the same molecule?
A: Its MIC is 125 µM.

Q: And the MIC (MRSA BAA-1707 [5]; magnesium(II) at 200 μM, read-out: MIC w/ Mg2+)?
A: The MIC was 62.5 µM.

Q: What about the MIC (MRSA BAA-1707 [5]; no metal(II) cation added, read-out: MIC) of the same molecule?
A: The MIC was 46.9 µM.

Q: What about the MIC (MRSA BAA-1707 [5]; zinc(II) at 200 μM, read-out: MIC w/ Zn2+) of the same molecule?
A: Its MIC is 250 µM.

Q: What about the MIC (MRSE 35984) of the same molecule?
A: Its MIC is 12.5 µM (≈ 5.31 µg/mL).
